Test results as given in patent US8552048B2, “Phosphoramidate alkylator prodrugs for the treatment of cancer” (Threshold Pharmaceuticals, Inc., priority 2006, dated 2013).

Key:
[1] = Pharmacokinetics of TH302 in Beagle Dogs (Table 6); format: in vivo; details: dog, plasma, intravenous; for half-life: read-out: T½ (converted); for Vd: read-out: Vss
[2] = tested on: PC-3 human prostate tumor; test: GFP PC3 prostate orthotopic model; format: in vivo, mice
[3] = Interspecies scaling (complex Dedrick analysis); details: 70-kg human
Method: (§1) Pharmacokinetic studies were performed in male CD-1 (50 mg/kg i.p. or orally (p.o.)) or female nude mice (50 mg/kg i.v. or i.p.), male Sprague-Dawley rats (1, 5, 20 and 50 mg/kg i.v. and 100 mg/kg, p.o.), beagle dogs (20 mg/kg, i.v.) and cynomologus monkeys (20 mg/kg i.v.). Plasma TH302 concentrations were analyzed using a LC/MS method and the pharmacokinetic parameters computed using a noncompartmental method. Interspecies scaling was performed according to standard methods.
Parts A, B, and C, below tabulate the pharmacokinetics of TH302 when administered to rats, Dogs, and monkeys.

[4] = Pharmacokinetics in beagle dogs (20 mg/kg i.v.); format: in vivo; details: dog, plasma, iv
Method: as §1

Cn1c(COP(=O)(NCCBr)NCCBr)cnc1[N+](=O)[O-] [TH302]
AUC ([1]; female, Females, 4 mg/kg): 2270 ng·h/mL | Cmax ([1]; female, Females, 4 mg/kg): 3830 ng/mL | Tmax ([1]; female, Females, 4 mg/kg): 31 min | clearance ([1]; female, Females, 4 mg/kg): 29.3 mL/min/kg | half-life ([1]; female, Females, 4 mg/kg): 16.1 min | Vd ([1]; female, Females, 4 mg/kg): 0.785 L/kg | AUC ([1]; female, Females, 8 mg/kg): 3400 ng·h/mL | Cmax ([1]; female, Females, 8 mg/kg): 6410 ng/mL | Tmax ([1]; female, Females, 8 mg/kg): 31.5 min | clearance ([1]; female, Females, 8 mg/kg): 39.7 mL/min/kg | half-life ([1]; female, Females, 8 mg/kg): 15.1 min | Vd ([1]; female, Females, 8 mg/kg): 0.974 L/kg | AUC ([1]; female, Females, 16 mg/kg): 7660 ng·h/mL | Cmax ([1]; female, Females, 16 mg/kg): 13700 ng/mL | Tmax ([1]; female, Females, 16 mg/kg): 31 min | clearance ([1]; female, Females, 16 mg/kg): 34.8 mL/min/kg | half-life ([1]; female, Females, 16 mg/kg): 16.7 min | Vd ([1]; female, Females, 16 mg/kg): 0.874 L/kg | AUC ([1]; female, Females, 32 mg/kg): 9530 ng·h/mL | Cmax ([1]; female, Females, 32 mg/kg): 18500 ng/mL | Tmax ([1]; female, Females, 32 mg/kg): 31 min | clearance ([1]; female, Females, 32 mg/kg): 56.5 mL/min/kg | half-life ([1]; female, Females, 32 mg/kg): 15.4 min | Vd ([1]; female, Females, 32 mg/kg): 1.37 L/kg | AUC ([1]; male, Males, 4 mg/kg): 2330 ng·h/mL | Cmax ([1]; male, Males, 4 mg/kg): 4160 ng/mL | Tmax ([1]; male, Males, 4 mg/kg): 37 min | clearance ([1]; male, Males, 4 mg/kg): 28.3 mL/min/kg | half-life ([1]; male, Males, 4 mg/kg): 16.1 min | Vd ([1]; male, Males, 4 mg/kg): 0.822 L/kg | AUC ([1]; male, Males, 8 mg/kg): 3640 ng·h/mL | Cmax ([1]; male, Males, 8 mg/kg): 6350 ng/mL | Tmax ([1]; male, Males, 8 mg/kg): 31.5 min | clearance ([1]; male, Males, 8 mg/kg): 37.2 mL/min/kg | half-life ([1]; male, Males, 8 mg/kg): 15.6 min | Vd ([1]; male, Males, 8 mg/kg): 0.982 L/kg | AUC ([1]; male, Males, 16 mg/kg): 6200 ng·h/mL | Cmax ([1]; male, Males, 16 mg/kg): 10800 ng/mL | Tmax ([1]; male, Males, 16 mg/kg): 31.5 min | clearance ([1]; male, Males, 16 mg/kg): 43 mL/min/kg | half-life ([1]; male, Males, 16 mg/kg): 15.5 min | Vd ([1]; male, Males, 16 mg/kg): 1.1 L/kg | AUC ([1]; male, Males, 32 mg/kg): 11000 ng·h/mL | Cmax ([1]; male, Males, 32 mg/kg): 23000 ng/mL | Tmax ([1]; male, Males, 32 mg/kg): 31.5 min | clearance ([1]; male, Males, 32 mg/kg): 48.5 mL/min/kg | half-life ([1]; male, Males, 32 mg/kg): 14.9 min | Vd ([1]; male, Males, 32 mg/kg): 1.12 L/kg | reduction in tumor volume ([2]; compared to final measurements in the vehicle group (day 31)): 84% | tumor growth delay (TGD) ([2]; single agent, Taxotere 12 mg/kg once a week for two weeks): 16 days | predicted Cl [3]: 109 L/h | predicted Vss [3]: 493 L | half-life ([4]; read-out: Mean t1/2): 49.2 min | clearance ([4]; read-out: mean Cl (converted)): 54.7 mL/min/kg | Vd ([4]; read-out: mean Vss): 1.98 L/kg
